Laboratory results reported in patent US20240041042A1, “1-(PYRIDYL)-5-AZINYLPYRAZOLE DERIVATIVES, AND THEIR USE FOR CONTROL OF UNDESIRED PLANT GROWTH” (Bayer Aktiengesellschaft, priority 2020, published 2024).

What was measured:
Assay type in all cases: in vivo
[1] = test system: Viola tricolor (VIOTR); test: Post-emergence herbicidal action against VIOTR
Outline: (§1)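 Doses of 320 g/ha or lower, suffixes a, b and c marking different dosages, were applied post-emergence at the one-leaf stage in 600 l/ha water with 0.5% additive. Damage was assessed visually after about 3 weeks in the greenhouse.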

[2] = test system: Oryza sativa (ORYSA); details: crop plant compatibility, 80 g/ha, effect in comparison to untreated controls
Outline: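 Greenhouse crops in sandy loam sprayed post-emergence at the one-leaf stage, 2–3 weeks after sowing, with WP or EC formulations in water plus 0.5% additive at 600 l/ha. Damage rated visually about 3 weeks later versus untreated controls (0% = like control, 100% = dead); suffixes a–c denote different doses.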

[3] = test system: Setaria viridis (SETVI); test: Post-emergence herbicidal action against SETVI
Outline: as §1

[4] = test system: Setaria viridis (SETVI); test: Pre-emergence herbicidal action against SETVI
Outline: (§2)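 Greenhouse pot trial: seeds sown, soil-covered, sprayed before emergence with compound in water (0.5% additive; 600 l/ha; ≤320 g/ha). Scoring visual, ~3 weeks, 0–100% scale vs untreated.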

[5] = test system: Pharbitis purpurea (PHBPU); test: Pre-emergence herbicidal action against PHBPU
Outline: as §2

[6] = test system: Digitaria sanguinalis (DIGSA); test: Pre-emergence herbicidal action against DIGSA
Outline: as §2

[7] = test system: Digitaria sanguinalis (DIGSA); test: Post-emergence herbicidal action against DIGSA; details: 320 g/ha, visual rating about 3 weeks after treatment
Outline: as §1

[8] = test system: Amaranthus retroflexus (AMARE); test: Pre-emergence herbicidal action against AMARE; details: visual scoring after about 3 weeks vs untreated controls
Outline: as §2

[9] = test system: Lolium rigidum (LOLRI); test: Pre-emergence herbicidal action against LOLRI
Outline: as §2

[10] = test system: Abutilon theophrasti (ABUTH); test: Pre-emergence herbicidal action against ABUTH; details: 100% = plants have died
Outline: as §2

[11] = test system: Verconica persica (VERPE); test: Pre-emergence herbicidal action against VERPE
Outline: as §2

[12] = test system: Echinochloa crus-galli (ECHCG); test: Post-emergence herbicidal action against ECHCG
Outline: as §1

[13] = test system: Matricaria inodora (MATIN); test: Pre-emergence herbicidal action against MATIN
Outline: as §2

[14] = test system: Abutilon theophrasti (ABUTH); test: Post-emergence herbicidal action against ABUTH; details: 320 g/ha, visual rating about 3 weeks after treatment vs untreated controls (100% = plants have died, 0% = like control plants)
Outline: as §1

[15] = test system: Alopecurus myosuroides (ALOMY); test: Pre-emergence herbicidal action against ALOMY; details: scored visually after about 3 weeks, 100% = plants have died
Outline: as §2

[16] = test system: Viola tricolor (VIOTR); test: Pre-emergence herbicidal action against VIOTR
Outline: as §2

[17] = test system: Avena fatua (AVEFA); test: Pre-emergence herbicidal action against AVEFA; details: visual scoring after about 3 weeks vs untreated controls
Outline: as §2

[18] = test system: Polygonum convolvulus (POLCO); test: Pre-emergence herbicidal action against POLCO
Outline: as §2

[19] = test system: Echinochloa crus-galli (ECHCG); test: Pre-emergence herbicidal action against ECHCG
Outline: as §2

[20] = test system: Lolium rigidum (LOLRI); test: Post-emergence herbicidal action against LOLRI
Outline: as §1

[21] = test system: Matricaria inodora (MATIN); test: Post-emergence herbicidal action against MATIN
Outline: as §1

[22] = test system: Pharbitis purpurea (PHBPU); test: Post-emergence herbicidal action against PHBPU
Outline: as §1

[23] = test system: Alopecurus myosuroides (ALOMY); test: Post-emergence herbicidal action against ALOMY; details: visual rating about 3 weeks after treatment vs untreated controls (100% = plants have died, 0% = like control plants)
Outline: as §1

[24] = test system: Avena fatua (AVEFA); test: Post-emergence herbicidal action against AVEFA; details: visual rating about 3 weeks after treatment
Outline: as §1

[25] = test system: Verconica persica (VERPE); test: Post-emergence herbicidal action against VERPE
Outline: as §1

[26] = test system: Amaranthus retroflexus (AMARE); test: Post-emergence herbicidal action against AMARE
Outline: as §1

[27] = test system: Polygonum convolvulus (POLCO); test: Post-emergence herbicidal action against POLCO
Outline: as §1

[28] = 80 g/ha, visual scoring after about 3 weeks vs untreated controls
[29] = Dosage column 320 g/ha (title prints 3200 g/ha), scored visually after about 3 weeks

C[C@@H](Oc1nn(-c2nc(F)ccc2F)c(-c2cncc(F)c2)c1Cl)C(=O)O [Example I-159]
90%: Pre-emergence action against SETVI in % ([4]; dosage 80 g/ha) | Pre-emergence action against PHBPU in % ([5]; dosage 320 g/ha) | Pre-emergence action against DIGSA in % [6, 28] | Pre-emergence action against AMARE in % ([8]; 80 g/ha) | Pre-emergence action against LOLRI in % ([9]; dosage 80 g/ha) | Post-emergence action against ECHCG in % ([12]; dosage 320 g/ha) | Pre-emergence action against MATIN in % ([13]; dosage 80 g/ha) | Pre-emergence action against MATIN in % ([13]; dosage 320 g/ha) | Pre-emergence action against ALOMY ([15]; 320 g/ha) | Pre-emergence action against AVEFA in % ([17]; 320 g/ha) | Pre-emergence action against POLCO in % ([18]; dosage 80 g/ha) | Pre-emergence action against POLCO in % ([18]; dosage 320 g/ha) | Pre-emergence action against ECHCG in % ([19]; dosage 80 g/ha) | Pre-emergence action against ECHCG in % ([19]; dosage 320 g/ha)
100%: Pre-emergence action against SETVI in % ([4]; dosage 320 g/ha) | Pre-emergence action against DIGSA in % ([6]; dosage 320 g/ha) | Pre-emergence action against AMARE in % ([8]; 320 g/ha) | Pre-emergence action against LOLRI in % ([9]; dosage 320 g/ha) | Pre-emergence action against VERPE in % ([11]; dosage 320 g/ha) | Pre-emergence action against VIOTR in % ([16]; 320 g/ha, Viola tricolor) | Pre-emergence action against VIOTR in % ([16]; dosage 80 g/ha)
10%: Post-emergence action against ORYSA in % [2]
80%: Post-emergence action against VIOTR in % ([1]; 320 g/ha) | Post-emergence action against SETVI in % ([3]; dosage 320 g/ha) | Pre-emergence action against PHBPU in % ([5]; dosage 80 g/ha) | Post-emergence action against DIGSA in % [7] | Pre-emergence action against ABUTH ([10]; 80 g/ha, scored visually after about 3 weeks vs untreated controls, 0% = like control plants) | Pre-emergence action against ABUTH [10, 29] | Post-emergence action against ECHCG in % ([12]; dosage 80 g/ha) | Post-emergence action against ABUTH in % [14] | Pre-emergence action against ALOMY ([15]; 80 g/ha) | Post-emergence action against LOLRI in % ([20]; dosage 320 g/ha) | Post-emergence action against MATIN in % ([21]; dosage 320 g/ha) | Post-emergence action against PHBPU in % ([22]; dosage 80 g/ha) | Post-emergence action against PHBPU in % ([22]; dosage 320 g/ha)

COC(=O)[C@@H](C)Oc1nn(-c2nc(F)ccc2F)c(-c2cncc(F)c2)c1C1CC1 [Example I-171]
90%: Post-emergence action against VIOTR in % ([1]; 80 g/ha) | Post-emergence action against VIOTR in % ([1]; 320 g/ha) | Post-emergence action against SETVI in % ([3]; dosage 80 g/ha) | Post-emergence action against SETVI in % ([3]; dosage 320 g/ha) | Pre-emergence action against PHBPU in % ([5]; dosage 320 g/ha) | Post-emergence action against ALOMY in % ([23]; 80 g/ha) | Post-emergence action against ALOMY in % ([23]; 320 g/ha) | Pre-emergence action against ABUTH [10, 29] | Pre-emergence action against MATIN in % ([13]; dosage 80 g/ha) | Pre-emergence action against MATIN in % ([13]; dosage 320 g/ha) | Post-emergence action against ABUTH in % [14] | Post-emergence action against AVEFA in % ([24]; 80 g/ha) | Post-emergence action against AVEFA in % ([24]; 320 g/ha) | Post-emergence action against VERPE in % ([25]; 320 g/ha, VERPE) | Pre-emergence action against AVEFA in % ([17]; 80 g/ha) | Pre-emergence action against POLCO in % ([18]; dosage 80 g/ha) | Pre-emergence action against POLCO in % ([18]; dosage 320 g/ha) | Post-emergence action against POLCO in % ([27]; dosage 320 g/ha) | Post-emergence action against LOLRI in % ([20]; dosage 320 g/ha) | Post-emergence action against MATIN in % ([21]; dosage 320 g/ha) | Post-emergence action against PHBPU in % ([22]; dosage 320 g/ha)
80%: Pre-emergence action against PHBPU in % ([5]; dosage 80 g/ha) | Pre-emergence action against DIGSA in % [6, 28] | Post-emergence action against DIGSA in % [7] | Post-emergence action against ECHCG in % ([12]; dosage 80 g/ha) | Post-emergence action against ECHCG in % ([12]; dosage 320 g/ha) | Post-emergence action against VERPE in % ([25]; dosage 80 g/ha) | Post-emergence action against AMARE in % ([26]; 80 g/ha, visual rating about 3 weeks after treatment vs untreated controls (100% = plants have died, 0% = like control plants)) | Post-emergence action against AMARE in % ([26]; 320 g/ha, visual rating about 3 weeks after treatment) | Post-emergence action against POLCO in % ([27]; dosage 80 g/ha) | Post-emergence action against LOLRI in % ([20]; dosage 80 g/ha) | Post-emergence action against MATIN in % ([21]; dosage 80 g/ha) | Post-emergence action against PHBPU in % ([22]; dosage 80 g/ha)
100%: Pre-emergence action against SETVI in % ([4]; dosage 80 g/ha) | Pre-emergence action against SETVI in % ([4]; dosage 320 g/ha) | Pre-emergence action against DIGSA in % ([6]; dosage 320 g/ha) | Pre-emergence action against AMARE in % ([8]; 80 g/ha) | Pre-emergence action against AMARE in % ([8]; 320 g/ha) | Pre-emergence action against LOLRI in % ([9]; dosage 80 g/ha) | Pre-emergence action against LOLRI in % ([9]; dosage 320 g/ha) | Pre-emergence action against VERPE in % ([11]; dosage 80 g/ha) | Pre-emergence action against VERPE in % ([11]; dosage 320 g/ha) | Pre-emergence action against ALOMY ([15]; 80 g/ha) | Pre-emergence action against ALOMY ([15]; 320 g/ha) | Pre-emergence action against VIOTR in % ([16]; 320 g/ha, Viola tricolor) | Pre-emergence action against VIOTR in % ([16]; dosage 80 g/ha) | Pre-emergence action against AVEFA in % ([17]; 320 g/ha) | Pre-emergence action against ECHCG in % ([19]; dosage 80 g/ha) | Pre-emergence action against ECHCG in % ([19]; dosage 320 g/ha)
